According to patent US11554103B2, “Compositions and methods to reduce pharmaceutical-induced toxicity” (priority 2016, dated 2023):
Entries after “also recorded” stand apart in the source; their conditions may differ.

Experiments:
[1] = system: substantia nigra pars compacta dopaminergic neurons; experiment: Ex vivo brain slice mitochondrial oxidant stress, mito-roGFP probe, two photon microscopy; format: cell-based, mouse; details: for effect on methamphetamine-induced dendritic mitochondrial stress / effect on methamphetamine-induced axonal (terminal) mitochondrial stress: 10 μM methamphetamine; for effect on methamphetamine-induced dendritic mitochondrial stress / effect on methamphetamine-induced axonal (terminal) mitochondrial stress / effect on levodopa-induced dendritic mitochondrial stress / effect on levodopa-induced axonal (terminal) mitochondrial stress / basal mitochondrial stress, monoamine oxidase inhibitor alone: clorgyline 5 μM; for effect on levodopa-induced dendritic mitochondrial stress / effect on levodopa-induced axonal (terminal) mitochondrial stress: 100 μM levodopa; for basal mitochondrial stress, monoamine oxidase inhibitor alone: dendrites and axons; for effect on methamphetamine- and levodopa-induced mitochondrial stress: slices pre-incubated with the MAO inhibitor
Method: (§1) Animals and treatment paradigms: Male C57/B16 and TH-mitoroGFP (Guzman et al., 2010 Nature p. 696; incorporated by reference in its entirety) mice 5-8 wks of age were used for all imaging studies. In addition to the TH-mitoroGFP transgenic line, roGFP was virally delivered into the SNc of C57/B16 mice (either targeting cytosolic or mitochondrial compartments).
(§2) Two photon microscopy: Ex vivo slices of the dorsolateral striatum or SNc were prepared and redox status determined as previously described (Guzman et al., 2010 Nature p. 696; incorporated by reference in its entirety). […] The dynamic range of the probe was determined by perfusing 2 mM dithiothreitol (DTT) to fully reduce the probe and 200 μM aldrithiol to fully oxidize the probe; data presented as % relative oxidation.
Stereotaxic surgery: PCR amplified roGFP, mitoroGFP and IMSroGFP inserts were subcloned into pFB-TH-SV40pA vector between EcoR1 and SalI sites. After sequence and expression verification, pFB-TH-roGFP vectors were packaged into rAAVs using serotype 9 with titers 2.1-×10^13 viral genome copies/ml (Virovek). Mice were anesthetized using an isoflurane precision vaporizer (Smiths Medical PM) and placed in a stereotaxic frame (David Kopf Instruments) with a Cunningham adaptor (Harvard Apparatus) to maintain anesthesia delivery throughout surgery. After exposing the skull, a small hole was drilled and 350 nL of AAV9-TH-cytosolic roGFP or AAV9-TH-mitoroGFP delivered via a glass micropipette (Drummond Scientific Company) pulled on a Sutter P-97 puller. The substantia nigra pars compacta (SNc) was targeted at the following coordinates: AP: −3.05, ML: 1.20, and DV −4.30. All surgeries were performed in wild-type mice. Experiments in animals with stereotaxic delivery of AAV viral vectors were performed after at least 10 days post-op.
Ex vivo slice preparation: Mice were terminally anesthetized with a mixture of ketamine (50 mg/kg)/xylazine (4.5 mg/kg) and transcardially perfused with ice cold modified artificial cerebrospinal fluid (aCSF) containing in mM: 124.0 NaCl, 3.0 KCl, 1.0 CaCl2, 2.0 MgCl2, 26 NaHCO3, 1.0 NaH2PO4, and 16.66 glucose. Once perfused the brain was rapidly removed and either saggital or coronal slices containing the dorsolateral striatum (275 μm thick) or the SNc (220 μm thick) sectioned using a vibratome (VT1200S Leica Microsystems). Slices were transferred to a holding chamber containing normal aCSF containing in mM: 124.0 NaCl, 3.0 KCl, 2.0 CaCl2, 1.0 MgCl2, 26 NaHCO3, 1.0 NaH2PO4, and 16.66 glucose and allowed at least 30-40 minutes to recover prior to experiments. All solutions were pH 7.4, 310-320 mOsm and continually bubbled with 95% O2/5% CO2.
Ex vivo redox measurements and two photon microscopy: Oxidant stress was assessed using the redox sensitive roGFP probe targeted either to the cytosol or mitochondrial matrix as previously described.^10 Slices were transferred to a recording chamber and continuously perfused with normal aCSF at 32-34° C. Fluorescence was measured using an Ultima Laser Scanning Microscope system (Bruker) with a DODT contrast detector to provide bright-field transmission images with an Olympus 60/0.9NA lens. A two-photon laser (Chameleon Ultra II, Coherent Inc.) tuned to 920 nm was used to excite roGFP. Time series image acquisitions of the roGFP probe were obtained with 60 frames obtained over ˜20 seconds with 0.195 μm×0.195 μm pixels and 10-12 μsec dwell times. The dynamic range of the probe was determined with 2 mM dithiothreitol, a reducing agent, and 200 μM aldrithiol, an oxidizing agent, which were sequentially perfused and t-series acquired with each to determine the maximal and minimal fluorescence intensity. Test measurements were calculated as relative oxidation. T-series were analyzed offline and fluorescence measurements in multiple regions of interest evaluated with background subtracted.^10 Final data is presented as percent of control (aCSF perfusion).

[2] = system: human iPSC-derived dopamine neurons; experiment: iPSC redox measurements (roGFP, one photon microscopy); format: cell-based; details: for axonal mitochondrial stress in the intermembrane space: 100 μM levodopa vs control, IMS-roGFP
Text: Human iPSC culture and neural differentiation: The iPSC line was generated from skin fibroblasts of a healthy individual through retroviral expression of OCT4, SOX2, cMYC, KLF4 and previously clinically characterized.^23-25 Differentiation of iPSCs into midbrain dopaminergic neurons was done according to published protocols.^26 To help control neuralization variability, cells were passaged en bloc (size of 1-2 mm) between days 11 and 14, followed by plating onto poly-d-lysine (PDL)/laminin coated 10 cm dishes. Between days 25 and 30, neural blocks were passed by accutase treatment onto PDL/laminin coated culture dishes. Neuralization growth factors were withdrawn at day 40 and neurons were maintained in Neurobasal media (Life Technologies) containing Neurocult SM1 (Stemcell technologies).
iPSC redox measurements and one photon microscopy: Human iPSC-derived dopaminergic neurons were grown on 12 mm glass coverslips and imaged between 75 and 88 days post-differentiation. Two to four days before experimentation, dopaminergic neurons were infected with viral vectors targeting roGFP expression to mitochondrial matrix (AAV9-TH-mitoroGFP), mitochondrial intermembrane space (AAV9-TH-IMSroGFP),^17 or the cytosol (AAV9-TH-cytoroGFP)^7. Cultures were transferred to an imaging chamber mounted on an inverted epifluorescence microscope (Nikon TE300) with a 40×/1.35NA oil-immersion objective. The imaging chamber was superfused with aCSF at a flow rate of 1 ml/min. Imaging experiments were carried out at 31-33° C. Cells were illuminated by Polychrome V (TILL Photonics) and emissions were captured with a cooled CCD camera (Hamamatsu ImagEM) and Slidebook imaging software (Intelligent Imaging Innovations). Regions of interests in the dendrites or axon were selected for image analysis. […] Afterwards, neurons were perfused with 2 mM dithiothreitol for 20 min and then 100 μM aldrithiol for 20 min to obtain full roGFP dynamic range.^7

[3] = system: tyrosine hydroxylase positive cells in the SNc; experiment: Methamphetamine 14 days plus 14 days withdrawal, stereology of tyrosine hydroxylase positive cells (Example 1); format: in vivo, mouse
Method: as §1
Stereology: Brains were fixed with 4% paraformaldehyde and serial coronal sections ([…]) were stained for tyrosine hydroxylase. Total number of tyrosine hydroxylase positive cells were counted in the SNc with the optical fractionator method (West et al., 1991 Anat Rec p. 482; Ilijic et al., 2011 Neurobiol Dis p. 364; incorporated by reference in their entireties).

[4] = system: substantia nigra pars compacta dopaminergic neurons; experiment: Chronic in vivo methamphetamine administration for 28 days, stereology and striatal optical density (Example 2)
Method: Immunohistochemistry and stereological analysis: Mice were terminally anesthetized with a mixture of ketamine (50 mg/kg)/xylazine (4.5 mg/kg) and transcardially perfused with 4% paraformaldehyde, post-fixed overnight and cryoprotected in 30% sucrose/phosphate buffered saline (PBS) at 4° C. until use. Serial coronal sections (60 μm thick) were collected throughout the midbrain and striatum. To stain for tyrosine hydroxylase the anti-tyrosine hydroxylase polyclonal antibody (Millipore) 1:2000 followed by goat anti-rabbit IgG biotin conjugated antibody (Millipore) 1:500 with normal goat serum blocking solution was used; after antibody incubation and rinsing with PBS, sections were incubated with ABC Elite Kit (Vector) and processed for diaminobenzidine reaction. Slices were mounted on slides, allowed to dry overnight, dehydrated in ascending alcohol concentrations and mounted with DPX mountant (Sigma). The estimated number of tyrosine hydroxylase positive (TH^+) cells were stereologically counted as previously described.^27 Slices from DAT-Cre X Ai14 mice expressing TdTomato in dopaminergic neurons were mounted on slides, allowed to dry, and mounted with Prolong Gold antifade mountant (Invitrogen). The estimated number of tdTomato expressing cells were stereologically counted. Sampling for stereological quantification was done using an Olympus BX41 microscope with motorized stage (Applied Scientific Instrumentation) and computerized stereology software (Stereologer). The SNc was delineated in each animal in every other section and cells counted using a 40×/0.65NA Olympus lens.
Drug application in ex vivo brain slice or iPSC experiments was performed via perfusion in aCSF.

[5] = system: substantia nigra pars compacta dopaminergic neurons; experiment: Ex vivo brain slice cytosolic oxidant stress, cyto-roGFP probe, two photon microscopy; format: cell-based, mouse; details: bath application of 20 μM menadione
Method: as §1
as §2, with “oxidation. […]” for “oxidation.”
Ex vivo redox measurements and two photon microscopy: Oxidant stress was assessed using the redox sensitive roGFP probe targeted either to the cytosol or mitochondrial matrix as previously described.^10 Slices were transferred to a recording chamber and continuously perfused with normal aCSF at 32-34° C. Fluorescence was measured using an Ultima Laser Scanning Microscope system (Bruker) with a DODT contrast detector to provide bright-field transmission images with an Olympus 60/0.9NA lens. […] Test measurements were calculated as relative oxidation. […]

SNc dopaminergic neurons = experiment: Pacemaking frequency in ex vivo slices; format: cell-based, mouse; details: 10 μM methamphetamine
[6] = rasagiline 10 μM, listed as rasagaline
[7] = 1 mg/kg rasagiline pretreatment, 5 mg/kg methamphetamine
[8] = 5 mg/kg methamphetamine, 28 consecutive days

## [Cl-].[K+] [KCl]
[1]; 15 mM KCl alone
  axonal mitochondrial stress: not significantly altered
[1]; 30 mM KCl perfusion
  axonal mitochondrial stress: increased axonal mitochondrial stress

## N[C@@H](Cc1ccc(O)c(O)c1)C(=O)O [levodopa, L-3,4-dihydroxyphenylalanine]
[2]; 100 μM levodopa vs basal
  axonal mitochondrial stress (mitochondrial matrix roGFP): increased axonal mitochondrial stress
  dendritic mitochondrial stress (mitochondrial matrix roGFP): increased
[2]
  axonal mitochondrial stress in the intermembrane space: increased axonal mitochondrial stress in the intermembrane space
[2]; listed as Levodopa
  axonal mitochondrial stress in the intermembrane space: robustly increased oxidant stress within the intermembrane space
[2]; levodopa
  mitochondrial matrix oxidant stress in human dopaminergic neurons: increased mitochondrial matrix oxidant stress in human dopaminergic neurons in a MAO-dependent manner

## C#CCN(C)CCCOc1ccc(Cl)cc1Cl [clorgyline]
[1]; rasagiline 10 μM
  effect on methamphetamine-induced dendritic mitochondrial stress: prevented
  effect on methamphetamine-induced axonal (terminal) mitochondrial stress: attenuated; also recorded: prevented rises in mitochondrial stress
  effect on levodopa-induced dendritic mitochondrial stress: prevented
  effect on levodopa-induced axonal (terminal) mitochondrial stress: attenuated; also recorded: prevented rises in mitochondrial stress
  basal mitochondrial stress, monoamine oxidase inhibitor alone: Neither rasagiline nor clorgyline had any effect on basal mitochondrial oxidant stress; also recorded: had no effect on mitochondrial stress
[1]
  effect on methamphetamine- and levodopa-induced mitochondrial stress: attenuated; also recorded: diminished the mitochondrial redox effects of methamphetamine and levodopa

## COC(=O)C1=C(C)NC(C)=C([N+](=O)[O-])C1c1ccccc1C(F)(F)F (stereo not drawn) [Bay K 8644]
[1]; 10 μM drug alone, relative to control (aCSF), dorsolateral striatum slices
  axonal (terminal) mitochondrial stress: increased axonal mitochondrial stress

## C#CCN[C@@H]1CCc2ccccc21 [rasagiline]
[1]; 10 μM d-amphetamine, rasagiline 10 μM
  effect on d-amphetamine-induced axonal mitochondrial stress: prevented
[1]; rasagiline 10 μM
  effect on methamphetamine-induced dendritic mitochondrial stress: prevented
  effect on methamphetamine-induced axonal (terminal) mitochondrial stress: attenuated
  effect on levodopa-induced dendritic mitochondrial stress: prevented
  effect on levodopa-induced axonal (terminal) mitochondrial stress: attenuated
  basal mitochondrial stress, monoamine oxidase inhibitor alone: Neither rasagiline nor clorgyline had any effect on basal mitochondrial oxidant stress; also recorded: had no effect on mitochondrial stress
[1]; [6]
  effect on methamphetamine-induced axonal (terminal) mitochondrial stress: prevented
  effect on levodopa-induced axonal (terminal) mitochondrial stress: prevented
[1]
  effect on methamphetamine- and levodopa-induced mitochondrial stress: attenuated
[3]; 1 mg/kg rasagiline, 30 min pretreatment, 5 mg/kg methamphetamine 14 days
  effect on methamphetamine-induced loss of TH+ cells: prevented meth-induced loss of TH+ cells
[4]; 1 mg/kg rasagiline 30 min pretreatment, 5 mg/kg methamphetamine
  effect on methamphetamine-induced loss of SNc neurons, Dat-Cre X Ai14 mice: significantly reduced degeneration in both the striatum and SNc; also recorded: prevented
[4]; [7]
  effect on methamphetamine-induced loss of SNc axons in the striatum: significantly reduced degeneration in both the striatum and SNc; also recorded: prevented
  effect on methamphetamine-induced loss of TH+ neurons: prevented

## CC1=CC(=O)c2ccccc2C1=O [menadione]
[5]
  cyto-roGFP oxidation state: > 200 % above baseline

## CNC(C)Cc1ccccc1 (stereo not drawn) [methamphetamine, N-methylamphetamine]
[3]; 5 mg/kg methamphetamine for 14 days, sacrificed after 14 days withdrawal
  tyrosine hydroxylase positive (TH+) cells: loss of TH+ cells
[4]; 5 mg/kg methamphetamine ip, 28 consecutive days
  tyrosine hydroxylase expressing neurons (TH+ neurons) in the SNc, stereological quantification: significantly decreased tyrosine hydroxylase (TH) immunoreactivity in the SNc; also recorded: loss of tyrosine hydroxylase expressing neurons
[4]; [8]
  SNc axons in the striatum, optical density measurements: loss of tdTomato fluorescence in both the striatum and SNc neurons; also recorded: loss of SNc axons in the striatum
  labeled (tdTomato) SNc neurons, Dat-Cre X Ai14 mice, stereological quantification: loss of tdTomato fluorescence in both the striatum and SNc neurons
SNc dopaminergic neurons
  pacemaking frequency: attenuated
